# According to patent US5185320A, “O^56 -alkyl derivatives of aglycone and pseudo aglycones of teicoplanin” (Gruppo Lepetit S.p.A., priority 1989, dated 1993):
# What was measured:
# Assay type in all cases: cell-based
# Details in all cases: inoculum about 10^4 CFU/ml, 18-24 h at 37° C.
# [1] = system: Pseudomonas aeruginosa ATCC 10145; test: MIC, standard dilution test, Pseudomonas aeruginosa ATCC 10145
# Method: (§1) ISOSENSITEST broth (Oxoid) and TOLLD-HEWITT broth (Difco) are used for growing staphylococci and streptococci, respectively. Broth cultures are diluted so that the final inoculum is about 10^4 colony forming units/ml (CFU/ml).
# [2] = system: Neisseria gonorrhoeae ISM68/126; test: MIC, standard dilution test, Neisseria gonorrhoeae ISM68/126
# Method: as §1
# Strep. pyogenes C 203 = test: MIC, standard dilution test, Strep. pyogenes C 203
# Method: as §1
# [3] = system: Proteus vulgaris ATCC 881; test: MIC, standard dilution test, Proteus vulgaris ATCC 881
# Method: as §1
# [4] = system: Staph. haemolyticus L 602; test: MIC, standard dilution test, Staph. haemolyticus L 602
# Method: as §1
# [5] = system: Strep. faecalis ATCC 7080; test: MIC, standard dilution test, Strep. faecalis ATCC 7080
# Method: as §1
# [6] = system: Haemophilus influenzae ATCC 19418; test: MIC, standard dilution test, Haemophilus influenzae ATCC 19418
# Method: as §1
# [7] = system: Staph. epidermidis ATCC 12228; test: MIC, standard dilution test, Staph. epidermidis ATCC 12228
# Method: as §1
# Strep. mitis L 796 = test: MIC, standard dilution test, Strep. mitis L 796
# Method: as §1
# Staph. aureus Tour L 165 = test: MIC, standard dilution test, Staph. aureus Tour L 165
# Method: as §1
# Strep. pneumoniae UC41 = test: MIC, standard dilution test, Strep. pneumoniae UC41
# Method: as §1
# [8] = system: Escherichia coli SKF 12140; test: MIC, standard dilution test, Escherichia coli SKF 12140
# Method: as §1
SMILES,Minimal inhibitory concentration (MIC) [1],Minimal inhibitory concentration (MIC) [2],Minimal inhibitory concentration (MIC) (Strep. pyogenes C 203),Minimal inhibitory concentration (MIC) [3],Minimal inhibitory concentration (MIC) [4],Minimal inhibitory concentration (MIC) [5],Minimal inhibitory concentration (MIC) [6],Minimal inhibitory concentration (MIC) [7],Minimal inhibitory concentration (MIC) (Strep. mitis L 796),Minimal inhibitory concentration (MIC) (Staph. aureus Tour L 165),Minimal inhibitory concentration (MIC) (Strep. pneumoniae UC41),Minimal inhibitory concentration (MIC) [8]
"NC1C(=O)NC2Cc3ccc(c(Cl)c3)Oc3cc4cc(c3OCc3ccccc3)Oc3ccc(cc3Cl)C(O)C3NC(=O)C(NC(=O)C4NC(=O)C(NC2=O)c2cc(O)cc(c2)Oc2cc1ccc2O)c1ccc(O)c(c1)-c1c(O)cc(O)cc1C(C(=O)OCc1ccccc1)NC3=O (stereo not drawn) [Compound 20, O^56 -phenylmethyldeglucoteicoplanin phenylmethyl ester]",> 128,> 128,0.125,> 128,4,0.5,> 128,0.25,0.125,0.5,0.25,> 128
"NC1C(=O)NC2Cc3ccc(c(Cl)c3)Oc3cc4cc(c3OC3CCOC3=O)Oc3ccc(cc3Cl)C(O)C3NC(=O)C(NC(=O)C4NC(=O)C(NC2=O)c2cc(O)cc(c2)Oc2cc1ccc2O)c1ccc(O)c(c1)-c1c(O)cc(O)cc1C(C(=O)OCc1ccccc1)NC3=O (stereo not drawn) [Compound 21, O^56-(tetrahydro-2-oxo-3-furanyl)deglucoteicoplanin phenylmethyl ester]",> 128,> 128,0.125,> 128,4,2,> 128,1,0.25,2,0.25,> 128
"NC1C(=O)NC2Cc3ccc(c(Cl)c3)Oc3cc4cc(c3OC3CCOC3=O)Oc3ccc(cc3Cl)C(O)C3NC(=O)C(NC(=O)C4NC(=O)C(NC2=O)c2cc(O)cc(c2)Oc2cc1ccc2O)c1ccc(O)c(c1)-c1c(O)cc(O)cc1C(C(=O)OC1CCOC1=O)NC3=O (stereo not drawn) [Compound 23, O^56-(tetrahydro-2-oxo-3-furanyl)deglucoteicoplanin (tetrahydro-2-oxo-3-furanyl) ester]",> 128,> 128,2,> 128,8,1,> 128,0.25,2,0.5,0.5,> 128
NCCNC(=O)C(CCO)OC(=O)C1NC(=O)C2NC(=O)C(NC(=O)C3NC(=O)C4NC(=O)C(Cc5ccc(c(Cl)c5)Oc5cc3cc(c5OC(CCO)C(=O)NCCN)Oc3ccc(cc3Cl)C2O)NC(=O)C(N)c2ccc(O)c(c2)Oc2cc(O)cc4c2)c2ccc(O)c(c2)-c2c(O)cc(O)cc21 (stereo not drawn) [Compound 24],> 128,128,0.125,128,0.25,0.5,> 128,0.125,0.125,0.25,0.25,32
